Assay results taken from patent US8106055B2, “Substituted amide compounds” (Gruenenthal GmbH, priority 2007, dated 2012).

What was measured:
[1] = molecular target: T1, human bradykinin 1 receptor (B1R) (Homo sapiens, UniProt P46663); assay: Functional investigation on the human bradykinin 1 receptor (B1R), Ca2+ FLIPR assay in CHO K1 hB1R cells; assay type: cell-based; conditions: B1R antagonism human; test substance 10 μM; Ca2+ FLIPR, CHO K1 hB1R cells
T1 construct: expressed in transfected cells; host or cells: CHO K1 cells
T1 sequence (P46663 1-353): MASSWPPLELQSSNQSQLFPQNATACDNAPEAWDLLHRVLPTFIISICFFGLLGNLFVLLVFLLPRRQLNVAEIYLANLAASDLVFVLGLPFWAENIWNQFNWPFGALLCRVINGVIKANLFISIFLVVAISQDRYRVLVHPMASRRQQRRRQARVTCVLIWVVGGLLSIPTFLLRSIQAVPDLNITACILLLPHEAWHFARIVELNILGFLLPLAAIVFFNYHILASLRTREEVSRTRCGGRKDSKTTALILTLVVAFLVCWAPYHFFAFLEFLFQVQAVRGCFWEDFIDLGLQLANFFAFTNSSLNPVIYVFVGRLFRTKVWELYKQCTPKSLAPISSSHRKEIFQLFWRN
Outline: (§1)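 Stably transfected CHO K1 cells loaded with Fluo-4; FLIPR Ca2+ fluorescence peak (ex 488/em 540 nm). Compound added first (agonism vs Lys-Des-Arg9-bradykinin ≥50 nM human, Des-Arg9-bradykinin 10 μM rat), then after 10-20 min agonist at EC80; antagonism as % inhibition, IC50 from concentration series, n=2-3, N≥2.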

[2] = molecular target: T2, bradykinin 1 receptor (B1R) of the rat (Rattus norvegicus, UniProt P97583); assay: Functional investigation on the rat bradykinin 1 receptor (B1R), Ca2+ FLIPR assay in CHO K1 rB1R cells; assay type: cell-based; conditions: B1R antagonism rat; test substance 10 μM; Ca2+ FLIPR, CHO K1 rB1R cells
T2 construct: expressed in transfected cells; host or cells: CHO K1 cells
T2 sequence (P97583 1-337): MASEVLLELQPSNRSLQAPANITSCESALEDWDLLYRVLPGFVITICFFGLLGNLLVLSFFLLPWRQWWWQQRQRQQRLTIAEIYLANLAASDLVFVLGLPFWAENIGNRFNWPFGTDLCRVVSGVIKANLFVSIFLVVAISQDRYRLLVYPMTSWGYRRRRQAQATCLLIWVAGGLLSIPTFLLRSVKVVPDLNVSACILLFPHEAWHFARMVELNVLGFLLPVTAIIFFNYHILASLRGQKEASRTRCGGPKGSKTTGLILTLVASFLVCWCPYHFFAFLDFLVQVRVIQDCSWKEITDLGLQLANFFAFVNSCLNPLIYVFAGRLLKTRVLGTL
Outline: as §1

`CN(C)C(c1ccc(Cl)cc1)C1CCC(CCNC(=O)COCCN(C)S(=O)(=O)c2c(Cl)cc(Cl)cc2Cl)CC1` (stereo not drawn) [Example 442] was tested, and the “B1R Ant. h [10 μM] % Inhibition” value [1] was 84% and the “B1R Ant. r [10 μM] % Inhibition” value [2] was 11%.
`COc1cc(C)c(S(=O)(=O)N(CCOCC(=O)NC2CCC(C(c3cccc(F)c3)N(C)C)CC2)Cc2ccccc2)c(C)c1` (stereo not drawn) [Example 372] was tested, and the “B1R Ant. h [10 μM] % Inhibition” value [1] was 65% and the “B1R Ant. r [10 μM] % Inhibition” value [2] was 22%.
In the case of `Cc1cc(C)c(S(=O)(=O)N(C)CCOCC(=O)NCCC2CCC(C(c3ccc(Cl)cc3)N(C)C)CC2)c(C)c1` (stereo not drawn) [Example 416], the “B1R Ant. h [10 μM] % Inhibition” value [1] is reported as 104% and the “B1R Ant. r [10 μM] % Inhibition” value [2] is reported as 30%.
In the case of `Cc1cc(C)c(S(=O)(=O)N2CCC(OCC(=O)NCC3CCC(C(c4ccc(Cl)cc4)N(C)C)CC3)C2)c(C)c1` (stereo not drawn) [Example 393], the “B1R Ant. h [10 μM] % Inhibition” value [1] is reported as 97% and the “B1R Ant. r [10 μM] % Inhibition” value [2] is reported as 39%.
With `CN(C)C(c1ccc(Cl)cc1)C1CCC(CCNC(=O)COC2CCCN(S(=O)(=O)c3ccccc3)C2)CC1` (stereo not drawn) [Example 395] the “B1R Ant. h [10 μM] % Inhibition” value [1] was 27% and the “B1R Ant. r [10 μM] % Inhibition” value [2] was 15%.
`CN(C)C(c1ccc(F)cc1)C1CCC(CNC(=O)COC2CCN(S(=O)(=O)c3ccc(Cl)cc3Cl)C2)CC1` (stereo not drawn) [Example 391] was tested, and the “B1R Ant. h [10 μM] % Inhibition” value [1] was 71% and the “B1R Ant. r [10 μM] % Inhibition” value [2] was 32%.
With `CN(C)C(c1ccc(Cl)cc1)C1CCC(CCNC(=O)COC2CCN(S(=O)(=O)c3ccc(F)cc3)C2)CC1` (stereo not drawn) [Example 440] the “B1R Ant. h [10 μM] % Inhibition” value [1] was 8% and the “B1R Ant. r [10 μM] % Inhibition” value [2] was 31%.
In the case of `CN(C)C(c1ccc(Cl)cc1)C1CCC(CCNC(=O)COC2CCN(S(=O)(=O)c3ccccc3)CC2)CC1` (stereo not drawn) [Example 443], the “B1R Ant. h [10 μM] % Inhibition” value [1] is reported as 21% and the “B1R Ant. r [10 μM] % Inhibition” value [2] is reported as −1%.
`COc1cc(C)c(S(=O)(=O)N2CCN(CCOCC(=O)NCCC3CCC(C(c4ccc(F)cc4)N(C)C)CC3)CC2)c(C)c1C` (stereo not drawn) [Example 387] was tested, and the “B1R Ant. h [10 μM] % Inhibition” value [1] was 75% and the “B1R Ant. r [10 μM] % Inhibition” value [2] was −2%.
For `CN(C)C(c1ccc(F)cc1)C1CCC(CNC(=O)COC2CCN(S(=O)(=O)c3cccc(C(F)(F)F)c3)C2)CC1` (stereo not drawn) [Example 402], the “B1R Ant. h [10 μM] % Inhibition” value [1] was 0% and the “B1R Ant. r [10 μM] % Inhibition” value [2] was 45%.
With `COc1cc(C)c(S(=O)(=O)N(CCOCC(=O)NCC2CCC(C(c3cccc(F)c3)N(C)C)CC2)Cc2ccccc2)c(C)c1C` (stereo not drawn) [Example 414] the “B1R Ant. h [10 μM] % Inhibition” value [1] was 28% and the “B1R Ant. r [10 μM] % Inhibition” value [2] was 10%.
In the case of `COc1cc(C)c(S(=O)(=O)N(C)CCOCC(=O)NC2CCC(C(c3ccc(F)cc3)N(C)C)CC2)c(C)c1` (stereo not drawn) [Example 422], the “B1R Ant. h [10 μM] % Inhibition” value [1] is reported as 104% and the “B1R Ant. r [10 μM] % Inhibition” value [2] is reported as 104%.
With `COc1ccc(S(=O)(=O)N2CCCC2COCC(=O)NCCC2CCC(C(c3ccc(F)cc3)N(C)C)CC2)cc1` (stereo not drawn) [Example 409] the “B1R Ant. h [10 μM] % Inhibition” value [1] was 45% and the “B1R Ant. r [10 μM] % Inhibition” value [2] was 48%.
With `CN(C)C(c1ccc(Cl)cc1)C1CCC(CNC(=O)COCCN(C)S(=O)(=O)c2ccc(OC(F)(F)F)cc2)CC1` (stereo not drawn) [Example 411] the “B1R Ant. h [10 μM] % Inhibition” value [1] was 41% and the “B1R Ant. r [10 μM] % Inhibition” value [2] was 3%.
With `CN(C)C(CCc1ccccc1)C1CCC(CNC(=O)COCC2CCCN2S(=O)(=O)c2ccc(Cl)c(Cl)c2)CC1` (stereo not drawn) [Example 415] the “B1R Ant. h [10 μM] % Inhibition” value [1] was 96% and the “B1R Ant. r [10 μM] % Inhibition” value [2] was 39%.
With `Cc1ccc(S(=O)(=O)N2CCC(OCC(=O)NCC3CCC(C(c4ccc(F)cc4)N(C)C)CC3)C2)cc1` (stereo not drawn) [Example 447] the “B1R Ant. h [10 μM] % Inhibition” value [1] was 24% and the “B1R Ant. r [10 μM] % Inhibition” value [2] was 3%.
`CN(C)C(c1cccc(F)c1)C1CCC(CCNC(=O)COC2CCN(S(=O)(=O)c3ccccc3)CC2)CC1` (stereo not drawn) [Example 444] was tested, and the “B1R Ant. h [10 μM] % Inhibition” value [1] was −20% and the “B1R Ant. r [10 μM] % Inhibition” value [2] was −5%.
`COc1cc(C)c(S(=O)(=O)N2CCCC(OCC(=O)NCC3CCC(C(c4ccc(F)cc4)N(C)C)CC3)C2)c(C)c1C` (stereo not drawn) [Example 418] was tested, and the “B1R Ant. h [10 μM] % Inhibition” value [1] was 53% and the “B1R Ant. r [10 μM] % Inhibition” value [2] was 6%.
`COc1cc(C)c(S(=O)(=O)N2CCCC(OCC(=O)NC3CCC(C(c4ccc(F)cc4)N(C)C)CC3)C2)c(C)c1C` (stereo not drawn) [Example 435] was tested, and the “B1R Ant. h [10 μM] % Inhibition” value [1] was 15% and the “B1R Ant. r [10 μM] % Inhibition” value [2] was 14%.
With `CN(C)C(c1ccc(F)cc1)C1CCC(CNC(=O)COCCN(C)S(=O)(=O)c2ccc(OC(F)(F)F)cc2)CC1` (stereo not drawn) [Example 439] the “B1R Ant. h [10 μM] % Inhibition” value [1] was 44% and the “B1R Ant. r [10 μM] % Inhibition” value [2] was 16%.
With `CN(C)C(c1cccc(F)c1)C1CCC(CCNC(=O)COC2CCN(S(=O)(=O)c3ccc(F)cc3)C2)CC1` (stereo not drawn) [Example 407] the “B1R Ant. h [10 μM] % Inhibition” value [1] was 4% and the “B1R Ant. r [10 μM] % Inhibition” value [2] was 10%.
